These results are taken from patent publication US20080051330A1, “Inhibitors of serine protease activity, methods and compositions for treatment of herpes viruses” (priority 1999, published 2008).

In experiment [1] the test system is HSV. To be noted: at molar concentration lower than that of acyclovir; cited from earlier work.
Experiment [2] concerns HSV. As to the kind of experiment: Activity against HSV in vitro: ELISA with rabbit anti-HSV antibody in infected human lung fibroblast cells. Format: cell-based, HSV-1 and HSV-2. To be noted: HLF cells, virus absorbed in presence or absence of AAT. (An ELISA detects its analyte on a solid surface through an enzyme-linked reagent.)
The next experiment deals with CMV. Briefly: Activity against CMV in vitro: plaque reduction assay in human lung fibroblast cells. Format: cell-based. To be noted: HLF cells, plaques counted day 6-10 post-infection. On the technique in general: In a plaque reduction assay, fewer plaques than in the control indicate reduced infectivity or spread.
For experiment [3], the system named is Herpes simplex virus-2, strain MS. The class given is in vivo, SCID mouse. The settings on record: SCID mice; for survival rate: HSV-2 at 1000 times LD50 on abraded skin, topical, three times daily for 7 days from 2 hours after inoculation, compound 100 mg/kg, untreated control 20%.

* marks the point of attachment. Cbz = O=C(OCc1ccccc1)*; CHN2 = [N-]=[N+]=C*

“Cbz-Leu-Val-Gly-CHN2 [reference compound]”: the “inhibitory effect on HSV replication” value in the experiment on HSV [1] is reported as “strong inhibitory effects”.

In the case of “AAT: glycoprotein of MW 51,000 with 394 amino acids and 3 oligosaccharide side chains; serine protease inhibitor”, the “effect on HSV by ELISA, optical density expressed as percent of control” value in the experiment with HSV [2] is recorded as “significant inhibitory effect”. For the same molecule, in the experiment on CMV, the “reduction in number of CMV plaques” value was “significant inhibitory effect”. Besides, the “percentage of mice surviving, in words, relative to vehicle control” value in experiment [3] (HSV-2 at 1000 times LD50) is on record as “significantly greater”. Moreover, the survival rate entry in experiment [3] is “about 60%”.

Consider `Nc1nc2c(ncn2COCCO)c(=O)[nH]1` [acyclovir, reference compound], for which the survival rate result in experiment [3] is listed as “about 60%”.

B1: Cystatin C: human cysteine proteinase inhibitor present in extracellular fluids (protein, UniProt P01034 27-146, looked up)
Cystatin-C: SSPGKPPRLVGGPMDASVEEEGVRRALDFAVGEYNKASNDMYHSRALQVVRARKQIVAGVNYFLDVELGRTTCTKTQPNLDNCPFHDQPHLKRKAFCSFQIYAVPWQGTMTLSKSTCQDA
As for B1, the “inhibitory effect on HSV replication” value in the experiment with HSV [1] was “strong inhibitory effects”.
